What was measured:
[1] = tested on: RAW264.7 cells; test: Osteoclast differentiation with conditioned medium from NTZ-treated PC-3-KQ cells; format: cell-based; conditions: CM from PC-3-KQ cells treated at 2.5 or 5 μM for 36 h; RANKL 10 ng/mL; 7 days
Protocol: In the second in vitro assay, we used conditioned medium (CM) from NTZ-treated Ac-KLF5-expressing cells. PC-3-KQ cells were seeded in 6-well plates at 1 × 10^5 cells per well and cultured overnight. […] Subsequently, the conditioned media (CM) was collected from each group, centrifugated, filtered, aliquoted, and stored at -80°C for further use or used immediately in the co-cultured experiments. […] RAW264.7 cells in 96-well plates with 24-h culture were incubated with the CM-containing medium for 7 days, with the medium replaced every 2 days. The TRAP staining assay was performed to determine the number of differentiated osteoclasts according to the manufacturer's instructions.

[2] = tested on: RAW264.7 cells co-cultured with PC-3-KQ cells; test: Osteoclast differentiation in co-culture of RAW264.7 and PC-3-KQ cells; format: cell-based; conditions: 1.25, 2.5, 5 μM, 7 days
Protocol: The third in vitro assay involved direct co-culture between RAW264.7 cells and cancer cells. RAW264.7 cells were seeded in 96-well plates at 700 cells per well and allowed to adhere for 12 h. PC-3-KQ cells were added to each well at 300 cells/well, and the culture continued for 12 h. NTZ was added to treat cells for 48 h at various final concentrations (0, 1.25, 2.5, 5 μM). The RAW264.7 medium was mixed with the PC-3 medium at 7:3, and the mixture was used to replace the culture medium every 2 days. After 7 days, the osteoclast differentiation was determined as described above.

[3] = tested on: MYBL2 promoter; test: ChIP assay of KLF5 binding to the MYBL2 promoter; format: cell-based, human; conditions: PC-3-KQ cells treated for 48 h
Protocol: ChIP assay was performed using the SimpleChIP Enzymatic Chromatin IP kit (Cat #: 9003s, Cell Signaling Technology) according to the manufacturer's instructions. Briefly, cells were treated with 1% formaldehyde for 10 min for cross-linking, quenched with glycine for 5 min at room temperature, collected, and digested with micrococcal nuclease for 20 min at 37°C. After stopping the reaction by adding EDTA, DNA was fragmented by sonication, and the extracts were incubated with KLF5 antibody (Cat #: 21017-1-AP, Proteintech) or IgG (Cat #: 2729P, Cell Signaling Technology). […]

[4] = tested on: PC-3-KQ cells; test: Clone formation assay; format: cell-based, human; conditions: 0-5 μM, 8 days
Protocol: (§1) PC-3-KQ and DU 145-KQ cells were seeded onto 6-well plates at 1 × 10^3 cells/well. After incubation for 24 h, PC-3-KQ cells were treated with NTZ at 0, 1.25, 2.5, and 5 μM, while DU 145-KQ cells were treated with NTZ at 0, 5, 10, and 20 μM for 8 days. The drug-containing medium was replaced every 2 days. On the 8th day, cells were rinsed with cold PBS, fixed with 4% paraformaldehyde for 10 min, stained with purple crystal for 10 min, and photographed, and the images were analyzed using the Image J software.

[5] = tested on: DU 145-KQ cells; test: Clone formation assay; format: cell-based, human; conditions: 0-20 μM, 8 days
Protocol: as §1

[6] = tested on: MMP9; test: MMP9 expression by western blotting and qRT-PCR; format: cell-based, human; conditions: KLF5^K369Q-expressing cells (PC-3-KQ)
Protocol: Total RNA was extracted from cells using the Eastep Super total RNA extraction kit (Cat #: LS1040, Promega, Shanghai, China) and quantified using the NanoDrop One (Thermo Fisher Scientific, Madison, USA). Single-strand cDNA was synthesized from 1 μg of total RNA using the HiScript III All-in-one RT SuperMix kit (Cat #: R333-01, Vazyme, Nanjing, China). For qRT-PCR, the cDNA template was mixed with the SYBR Green reagent in enzyme-free water, and the Qtower3 touch system (Analytik Jena, Jena, Germany) was used for PCR with the following program: initial denaturation at 95°C for 5 min, 40 cycles of 95°C for 30 s, 60°C for 30 s, and 72 °C for 30 s, and a final melting for 15 s. GAPDH was used as an internal control. […].
Cells in 6-well plates were washed with cold PBS and collected in a lysis buffer containing phosphatase and protease inhibitors (Cat #: P1045, Beyotime) to extract proteins. After centrifugation for 10 min at 4°C in a refrigerated centrifuge, the supernatant was collected and mixed with the 4× loading buffer, boiled in a metal heat bath at 100°C for 10 min, and then subjected to 10% SDS-PAGE. Proteins were transferred onto an activated PVDF membrane (0.45 μm pore-size, Cat #: IPVH00010, Millipore, Carrigtwohill, Ireland). […]

CC(=O)Oc1ccccc1C(=O)Nc1ncc([N+](=O)[O-])s1 [Nitazoxanide]
number of TRAP^+ multinucleated cells [1]: significantly reduced
number of TRAP^+ multinucleated cells [2]: significantly decreased
KLF5^K369Q-bound DNA of MYBL2 promoter (-1242 to -1251) [3]: significantly decreased KLF5^K369Q-bound DNA
colony number [4]: reduced colony number
colony number [5]: reduced colony number
MMP9 expression (protein and mRNA) [6]: decreased MMP9 expression in a dose-dependent manner

Source: PMC9945734 (BMC Medicine, 2023)
